pEC50, pIC50: −log10 of the molar value. Read-outs that look alike come from different tables or passages of the source.
Tests used:
[1] = test system: influenza virus endonuclease; conditions: read-out: IC50 in enzymatic assays; cited from earlier work
in vitro [2] = conditions: human, vRNP reconstitution assay Cytotoxicity CC50
[3] = target: influenza virus vRNPs reconstituted in HEK293T cells (Influenza A virus, UniProt P03433); assay: vRNP reconstitution assay in HEK293T cells; assay type: cell-based; conditions: for selectivity index (ratio of CC50 to EC50): vRNP assay, HEK293T
in vitro [4] = conditions: dog
[5] = test system: influenza A virus (strain A/PR/8/34); assay: microbe, parasite or virus in culture; assay type: cell-based; conditions: for EC90 / EC99: Influenza A virus, 24 h; for EC90: read-out: Virus yield assay Antiviral activity EC90; for EC99: read-out: Virus yield assay Antiviral activity EC99
[6] = test system: untransfected HEK293T cells; conditions: human, 24 h, 200 μM
[7] = MTS cell viability assay in untransfected HEK293T cells; conditions: human, vRNP reconstitution assay Cytotoxicity CC50, untransfected HEK293T cells
[8] = MTS cell viability assay in uninfected MDCK cells; conditions: dog
[9] = read-out: vRNP reconstitution assay Activity EC50
[10] = PR/8, 1-log10 reduction in virus titer, qPCR, MDCK cells
[11] = PR/8, 2-log10 reduction in virus titer, qPCR, MDCK cells

| SMILES | CC50 at 24 h (in vitro [2]) [µM] | pEC50 [3, 9] | CC50 at 24 h (in vitro [4]) [µM] | EC90 [5, 10] [µM] | EC99 [5, 11] [µM] | SI (selectivity index, ratio between CC50 and EC90) ([5]; MDCK cells) | further results |
| --- | --- | --- | --- | --- | --- | --- | --- |
| O=c1[nH]c(-c2ccc(-c3nnn[nH]3)cc2)ncc1O [2-(4-(1H-tetrazol-5-yl)phenyl)-5-hydroxypyrimidin-4(3H)-one] |  |  |  |  |  |  | pIC50 [1]: 6.82 |
| NC(=O)N/N=C/c1cccc(O)c1O [Compound 1, N’-(2,3-dihydroxybenzylidene)-semicarbazide] | > 200 | 3.97 |  |  |  |  |  |
| COc1cccc(/C=N/NC(N)=O)c1O [Compound 2] | > 200 | < 4.00 |  |  |  |  |  |
| CCCCCCCC(=O)N/N=C/c1cccc(O)c1O [Compound 3] | < 50 | 5.23 | > 200 |  |  |  | selectivity index (ratio of CC50 to EC50) [3]: below 8 |
| CCCCCCCC(=O)N/N=C/c1cccc(OC)c1O [Compound 4] | < 50 | 5.20 | > 200 |  |  |  | selectivity index (ratio of CC50 to EC50) [3]: below 8 |
| O=C(N/N=C/c1cccc(O)c1O)c1ccccc1 [Compound 5] |  | 5.59 | ≥ 146 | > 25 | > 25 |  | selectivity index (ratio of CC50 to EC50) [3]: below 8 |
| COc1cccc(/C=N/NC(=O)c2ccccc2)c1O [Compound 6] |  | 4.82 | > 200 | > 50 | > 50 |  | selectivity index (ratio of CC50 to EC50) [3]: below 8 |
| O=C(N/N=C/c1cccc(O)c1O)c1ccccc1O [Compound 7] |  | 5.49 | > 200 | 100 | 172 | >2.0 | difference between EC50 in the vRNP assay and EC90 in the virus yield assay [3]: ≥ 8 fold; selectivity index (ratio of CC50 to EC50) [3]: below 8 |
| COc1cccc(/C=N/NC(=O)c2ccccc2O)c1O [Compound 8] |  | 5.72 | > 200 | > 12.5 | > 12.5 |  | selectivity index (ratio of CC50 to EC50) [3]: below 8 |
| O=C(N/N=C/c1cc(O)c(O)cc1O)c1ccccc1O [Compound 9] | > 200 | 5.26 | > 200 | 5.3 | 16 | >38 |  |
| O=C(N/N=C/c1c(O)cc(O)cc1O)c1ccccc1O [Compound 10] | 132 | 6.40 | 111 | 8.5 | 14 |  | difference between EC50 in the vRNP assay and EC90 in the virus yield assay [3]: ≥ 8 fold |
| O=C(N/N=C/c1cc(O)c(O)c(O)c1)c1ccccc1O [Compound 11] | > 200 | 5.25 | > 200 | 12 | 30 | >17 |  |
| COc1cc(C(=O)N/N=C/c2cc(O)ccc2O)cc(OC)c1OC [Compound 12] | 39 | 4.70 | > 200 | > 12.5 | > 12.5 |  |  |
| O=C(N/N=C/c1ccccc1)c1cc(O)c(O)c(O)c1 [Compound 13] | > 200 | 5.20 | > 200 | 34 | 71 | >5.9 |  |
| O=C(N/N=C/c1ccccc1O)c1cc(O)c(O)c(O)c1 [Compound 14] | > 200 | 5.64 | > 200 | 37 | 63 | >5.4 | difference between EC50 in the vRNP assay and EC90 in the virus yield assay [3]: ≥ 8 fold |
| O=C(N/N=C/c1cc(O)ccc1O)c1cc(O)c(O)c(O)c1 [Compound 15] | > 200 | 4.85 | ≥ 172 | 7.5 | 18 | ≥23 |  |

| SMILES | CC50 at 24 h (in vitro [2]) [µM] | pEC50 [3, 9] | CC50 at 24 h (in vitro [4]) [µM] | EC90 [5, 10] [µM] | EC99 [5, 11] [µM] | SI (selectivity index, ratio between CC50 and EC90) ([5]; MDCK cells) | further results |
| --- | --- | --- | --- | --- | --- | --- | --- |
| COc1ccc(O)c(/C=N/NC(=O)c2cc(O)c(O)c(O)c2)c1 [Compound 16] | > 200 | 5.28 | > 200 | 28 | 67 | >7.1 |  |
| O=C(N/N=C/c1ccc(O)cc1O)c1cc(O)c(O)c(O)c1 [Compound 17] | > 200 | 5.15 | > 200 | 8.1 | 21 | >25 |  |
| O=C(N/N=C/c1cccc(O)c1O)c1cc(O)c(O)c(O)c1 [Compound 18] | > 200 | 5.48 | > 200 | 2.2 | 6.2 | >91 | cytotoxicity in the vRNP assay [6]: not cytotoxic at 200 μM |
| COc1cccc(/C=N/NC(=O)c2cc(O)c(O)c(O)c2)c1O [Compound 19] | > 200 | 5.24 | > 200 | 26 | 53 | >7.7 | cytotoxicity in the vRNP assay [6]: not cytotoxic at 200 μM |
| O=C(N/N=C/c1ccc(O)c(O)c1O)c1cc(O)c(O)c(O)c1 [Compound 20] | > 200 | 5.66 | > 200 | 11 | 35 | >18 |  |
| O=C(N/N=C/c1cc(O)c(O)cc1O)c1cc(O)c(O)c(O)c1 [Compound 21] | > 200 | 5.60 | > 200 | 3.6 | 8.3 | >56 |  |
| O=C(N/N=C/c1c(O)cc(O)cc1O)c1cc(O)c(O)c(O)c1 [Compound 22] | > 200 | 6.38 | > 200 | 3.4 | 7.4 | >59 | difference between EC50 in the vRNP assay and EC90 in the virus yield assay [3]: ≥ 8 fold |
| O=C(N/N=C/c1cc(O)c(O)c(O)c1)c1cc(O)c(O)c(O)c1 [Compound 23] | > 200 | 5.51 | > 200 | 3.5 | 11 | >57 |  |
| O=C(N/N=C/c1ccccn1)c1cc(O)c(O)c(O)c1 [Compound 24] | > 200 | 4.60 | > 200 | 26 | 58 | >7.7 |  |
| O=C(N/N=C/c1ccc[nH]1)c1cc(O)c(O)c(O)c1 [Compound 25] | > 200 | 5.39 | > 200 | 70 | 132 | >2.9 | difference between EC50 in the vRNP assay and EC90 in the virus yield assay [3]: ≥ 8 fold |
| O=C(O)c1ccc(-c2cccc(/C=N/NC(=O)c3cc(O)c(O)c(O)c3)c2)cc1 [Compound 26] | > 200 | 5.26 | > 200 | 13 | 36 | >15 |  |
| NC(=O)N/N=C/c1cc(O)c(O)c(O)c1 [Compound 27] | > 200 | 4.68 |  |  |  |  |  |
| NNC(=O)c1cc(O)c(O)c(O)c1 [Compound 28, 3,4,5-trihydroxybenzohydrazide] | > 200 | 5.14 | > 200 | 85 | 158 | >2.4 | difference between EC50 in the vRNP assay and EC90 in the virus yield assay [3]: ≥ 8 fold |
| O=C(O[C@@H]1Cc2c(O)cc(O)cc2O[C@@H]1c1cc(O)c(O)c(O)c1)c1cc(O)c(O)c(O)c1 [EGCG, epigallocatechin-3-gallate] |  |  |  |  |  |  | pIC50 [1]: 5.72 |
| CC(C)/C=C1\N=C(CC(C)C)C(=O)N(O)C1=O [Flutimide] |  |  |  |  |  |  | pIC50 [1]: 5.26 |
| NC(=O)c1ncn([C@@H]2O[C@H](CO)[C@@H](O)[C@H]2O)n1 [Ribavirin, reference compound] |  |  |  |  |  |  | CC50 at 24 h [7]: > 200 µM; CC50 at 24 h [8]: > 200 µM; EC90 ([5]; PR/8, MDCK): 8.5 µM; EC99 ([5]; PR/8, MDCK): 13 µM; pEC50 [3]: 5.03 |

Reference: paper PMC4980666, “N-acylhydrazone inhibitors of influenza virus PA endonuclease with versatile metal binding modes” (Scientific Reports, 2016)
